Reference: US20040037856A1, “Use of compounds containing a thio-ether, sulphoxide or sulphone function as cosmetic anti-pollution agent” (priority 2000, published 2004)

Experiments:
[1] = test system: human keratinocytes; assay: Ozone-induced lipid hydroperoxides (DCFH-DA fluorescence) in monolayer culture of human keratinocytes; type: cell-based; conditions: for % fluorescence observed ± SEM in the presence of CMC, relative to the unprotected controls: 24 h pretreatment with CMC 0.5 mg/ml, CMC 1 mg/ml in PBS during exposure (b102 says 200 μM), controls = 100%, n=4
Procedure: Ozone has the capacity to oxidize cell constituents, especially generating carbonylated proteins and lipid hydroperoxides. Quantification of the lipid hydroperoxides is one means of measuring the oxidative stress induced by exposing skin tissue to this pollutant. A decrease in their content indicates a protective effect. The study was performed on a monolayer culture of human keratinocytes. The cells are inoculated on D-3 into 48-well dishes at a rate of 25 000 cells/cm^2 in 500 μl of culture medium. The incubations are performed at 37° C., 5% CO2 under a humid atmosphere. The cells were pretreated for 24 hours with CMC (0.5 mg/ml, half-maximal dose that is nontoxic to the cells, dissolved in the culture medium). Hydroperoxides constitute an intracellular stress marker. They are detected and quantified by means of a fluorescence technique (Lebel C. P., Ischiropoulos H. and Bondy S. C. (1992) Evaluation of the probe 2,7-dichlorofluorescin as an indicator of Reactive Oxygen Species formation and oxidative stress. Chem. Res. Toxicol.; 5: 227-231). In the presence of intracellular hydroperoxides and peroxidases, DCFH is oxidized to fluorescent 2,7-dichlorofluorescein (DCF). The cells, pretreated for 24 hours with CMC, are then washed with PBS buffer and placed in contact for 30 minutes with a solution of DCFH-DA (500 μl/well), prepared in the culture medium to a concentration of 320 μM. The cells are again rinsed with PBS buffer and then placed in contact with a CMC solution at a concentration of 1 mg/ml in PBS (100 μl/well). They are then exposed to ozone (1 ppm), under a humid atmosphere, in an incubator set at 37° C. The formation of fluorescent DCF (excitation filter at 485 nm and emission filter at 530 nm) resulting from the production of hydroperoxides is measured after different times of exposure to ozone: 0, 5, 10 and 20 minutes. Toxicity of ozone toward human keratinocytes in culture, in the absence and presence of S-carboxymethylcysteine at a concentration of 200 μM, as a function of the exposure time (n=4). For each time, the fluorescence values of the unprotected controls are set at 100%. The results in the presence of CMC are then expressed relative to this control value. […] This protection is at a maximum from 5 minutes of exposure onward (67.7% drop in induced stress). It is still significant after 20 minutes of exposure (53.5% drop in induced stress) relative to the unprotected controls.

[2] = test system: human keratinocytes; assay: Toxicity of CMC to the keratinocytes (nontoxic dose); type: cell-based; conditions: dissolved in the culture medium, 24 hours
Procedure: The study was performed on a monolayer culture of human keratinocytes. The cells are inoculated on D-3 into 48-well dishes at a rate of 25 000 cells/cm^2 in 500 μl of culture medium. The incubations are performed at 37° C., 5% CO2 under a humid atmosphere.
The cells were pretreated for 24 hours with CMC (0.5 mg/ml, half-maximal dose that is nontoxic to the cells, dissolved in the culture medium).

Q: With `N[C@@H](CSCC(=O)O)C(=O)O` [CMC, S-carboxymethylcysteine] as the compound, how does the “% fluorescence observed ± SEM in the presence of CMC, relative to the unprotected controls” value ([1]; 5 min. of contact with ozone (1 ppm)) read?
A: Its value is 32.4 ± 5.9%.

Q: And the “drop in induced stress relative to the unprotected controls” value ([1]; 5 minutes of exposure to ozone)?
A: The value was 67.7%.

Q: And the “% fluorescence observed ± SEM in the presence of CMC, relative to the unprotected controls” value ([1]; 10 min. of contact with ozone (1 ppm))?
A: The value was 33.7 ± 5.0%.

Q: And the “% fluorescence observed ± SEM in the presence of CMC, relative to the unprotected controls” value ([1]; 20 min. of contact with ozone (1 ppm))?
A: Its value is 46.5 ± 8.5%.

Q: What about the “drop in induced stress relative to the unprotected controls” value ([1]; 20 minutes of exposure to ozone) of the same compound?
A: The value was 53.5%.

Q: And the “protective effect against the effect induced by ozone (oxidative stress)” value ([1]; human keratinocytes in vitro, ozone exposure)?
A: Its value is “highly significant protective effect”.

Q: And the “half-maximal dose that is nontoxic to the cells” value [2]?
A: Its value is 0.5 mg/mL.
